{
  "source": "ChEMBL document CHEMBL1156451",
  "about": "(J Biol Chem, 2007)",
  "key": {"Acinetobacter baumannii": {"system": "Acinetobacter baumannii", "experiment": "Antibacterial activity against Acinetobacter baumannii ATCC 19606 after 24 hrs in Mueller-Hinton broth medium", "assay_type": "functional", "settings": "ATCC 19606, 24 h"}, "Escherichia coli [1]": {"system": "Escherichia coli", "experiment": "Antibacterial activity against Escherichia coli K12 ATCC 23716 in 10% Luria-Bertani medium/90% Hepes buffer at pH 7.0", "assay_type": "functional"}, "[2]": {"experiment": "Toxicity in human erythrocytes assessed as hemolysis at 100 ug/ml", "assay_type": "cell-based, Erythrocyte", "settings": "read-out: Activity"}, "Staphylococcus aureus": {"system": "Staphylococcus aureus", "experiment": "Antibacterial activity against methicillin-resistant Staphylococcus aureus ATCC 43300 after 24 hrs in Mueller-Hinton broth medium", "assay_type": "functional", "settings": "ATCC 43300, 24 h"}, "Brucella abortus [3]": {"system": "Brucella abortus", "experiment": "Antibacterial activity against Brucella abortus 9.49 (per-) after 48 hrs in Mueller-Hinton broth medium", "assay_type": "functional"}, "[4]": {"system": "Bordetella bronchiseptica", "experiment": "Antibacterial activity against Bordetella bronchiseptica CUN 11844-99 after 24 hrs in Mueller-Hinton broth medium", "assay_type": "functional"}, "HeLa": {"system": "HeLa", "experiment": "Cytotoxicity against human HeLa cells at 100 ug/ml after 24 hrs by MTT assay relative to control", "assay_type": "functional"}, "Escherichia coli [5]": {"system": "Escherichia coli", "experiment": "Antibacterial activity against Escherichia coli K12 ATCC 23716 after 24 hrs in Mueller-Hinton broth medium", "assay_type": "functional", "settings": "K12, 24 h"}, "Pseudomonas aeruginosa": {"system": "Pseudomonas aeruginosa", "experiment": "Antibacterial activity against Pseudomonas aeruginosa CUN 4158-02 after 24 hrs in Mueller-Hinton broth medium", "assay_type": "functional"}, "Brucella abortus [6]": {"system": "Brucella abortus", "experiment": "Antibacterial activity against Brucella abortus 9.19 (per-) after 24 hrs in Mueller-Hinton broth medium", "assay_type": "functional"}, "Escherichia coli [7]": {"system": "Escherichia coli", "experiment": "Antibacterial activity against Escherichia coli ATCC 25922 after 24 hrs in Mueller-Hinton broth medium", "assay_type": "functional", "settings": "ATCC 25922, 24 h"}},
  "note": "Active and inactive are the calls of the source. The calls are words filed in the database; no cut-off is given here. Where a SMILES comes first, the peptide text is derived from it.",
  "data": [
    {"compound": "CC[C@H](C)[C@H](N)C(=O)N[C@@H](CO)C(=O)N[C@@H](CCCCN)C(=O)N[C@@H](CCCNC(=N)N)C(=O)N[C@H](C(=O)N[C@@H](CC(C)C)C(=O)N[C@H](C(=O)NCC(=O)N[C@@H](CCCCN)C(=O)N[C@@H](CCCCN)C(=O)O)[C@@H](C)O)[C@@H](C)CC", "note": "(H-ISKRILTGKK-OH)", "values": [
      {"measurement": "MBC", "setting": "Acinetobacter baumannii", "value": "> 256", "unit": "µg/mL"},
      {"measurement": "MIC", "setting": "Acinetobacter baumannii", "value": "> 256", "unit": "µg/mL"},
      {"measurement": "MBC", "setting": "Escherichia coli [1]", "value": "> 200", "unit": "µg/mL"},
      {"measurement": "MIC", "setting": "Escherichia coli [1]", "value": "> 200", "unit": "µg/mL"},
      {"measurement": "hemolysis at 100 ug/ml", "setting": "[2]", "value": "< 5", "unit": "%"},
      {"measurement": "MBC", "setting": "Staphylococcus aureus", "value": "> 256", "unit": "µg/mL"},
      {"measurement": "MIC", "setting": "Staphylococcus aureus", "value": "> 256", "unit": "µg/mL"},
      {"measurement": "MIC", "setting": "Brucella abortus [3]", "value": "> 64", "unit": "µg/mL"},
      {"measurement": "MBC", "setting": "[4]", "value": "> 256", "unit": "µg/mL"},
      {"measurement": "MIC", "setting": "[4]", "value": "> 256", "unit": "µg/mL"},
      {"measurement": "Activity", "setting": "HeLa", "value": "inactive"},
      {"measurement": "MBC", "setting": "Escherichia coli [5]", "value": "> 256", "unit": "µg/mL"},
      {"measurement": "MIC", "setting": "Escherichia coli [5]", "value": "> 256", "unit": "µg/mL"},
      {"measurement": "MBC", "setting": "Pseudomonas aeruginosa", "value": "> 256", "unit": "µg/mL"},
      {"measurement": "MIC", "setting": "Pseudomonas aeruginosa", "value": "> 256", "unit": "µg/mL"},
      {"measurement": "MBC", "setting": "Brucella abortus [6]", "value": "> 256", "unit": "µg/mL"},
      {"measurement": "MBC", "setting": "Escherichia coli [7]", "value": "> 256", "unit": "µg/mL"},
      {"measurement": "MIC", "setting": "Escherichia coli [7]", "value": "> 256", "unit": "µg/mL"}
    ]},
    {"compound": "CC[C@H](C)[C@H](NC(=O)[C@H](CCCCN)NC(=O)[C@H](CCCCN)NC(=O)[C@H](CO)NC(=O)[C@@H](NC(=O)CNC(=O)[C@H](CCCNC(=N)N)NC(=O)[C@H](CC(C)C)NC(=O)[C@@H](NC(=O)[C@@H](N)CCCCN)[C@@H](C)CC)C(C)C)C(=O)N[C@@H](CCSC)C(=O)N[C@@H](CCCNC(=N)N)C(=O)N[C@@H](CCCNC(=N)N)C(=O)N[C@H](C(=O)N[C@@H](CC(C)C)C(=O)N[C@H](C(=O)NCC(=O)N[C@@H](CCCCN)C(=O)N[C@@H](CCCCN)C(N)=O)[C@@H](C)O)[C@@H](C)CC", "note": "(H-KILRGVSKKIMRRILTGKK-NH2)", "values": [
      {"measurement": "MBC", "setting": "Acinetobacter baumannii", "value": 2, "unit": "µg/mL"},
      {"measurement": "MIC", "setting": "Acinetobacter baumannii", "value": 2, "unit": "µg/mL"},
      {"measurement": "MBC", "setting": "Escherichia coli [1]", "value": 32, "unit": "µg/mL"},
      {"measurement": "MIC", "setting": "Escherichia coli [1]", "value": 16, "unit": "µg/mL"},
      {"measurement": "hemolysis at 100 ug/ml", "setting": "[2]", "value": "< 5", "unit": "%"},
      {"measurement": "MBC", "setting": "Staphylococcus aureus", "value": "> 256", "unit": "µg/mL"},
      {"measurement": "MIC", "setting": "Staphylococcus aureus", "value": "> 256", "unit": "µg/mL"},
      {"measurement": "MIC", "setting": "Brucella abortus [3]", "value": 64, "unit": "µg/mL"},
      {"measurement": "MBC", "setting": "[4]", "value": 4, "unit": "µg/mL"},
      {"measurement": "MIC", "setting": "[4]", "value": 4, "unit": "µg/mL"},
      {"measurement": "Activity", "setting": "HeLa", "value": "inactive"},
      {"measurement": "MBC", "setting": "Escherichia coli [5]", "value": 64, "unit": "µg/mL"},
      {"measurement": "MIC", "setting": "Escherichia coli [5]", "value": 64, "unit": "µg/mL"},
      {"measurement": "MBC", "setting": "Pseudomonas aeruginosa", "value": 32, "unit": "µg/mL"},
      {"measurement": "MIC", "setting": "Pseudomonas aeruginosa", "value": 32, "unit": "µg/mL"},
      {"measurement": "MBC", "setting": "Brucella abortus [6]", "value": 128, "unit": "µg/mL"},
      {"measurement": "MBC", "setting": "Escherichia coli [7]", "value": 32, "unit": "µg/mL"},
      {"measurement": "MIC", "setting": "Escherichia coli [7]", "value": 32, "unit": "µg/mL"}
    ]},
    {"compound": "CC[C@H](C)[C@H](NC(=O)[C@H](CCCCN)NC(=O)[C@@H](N)CCCCN)C(=O)N[C@@H](CCSC)C(=O)N[C@@H](CCCNC(=N)N)C(=O)N[C@H](C(=O)N[C@@H](Cc1ccccc1)C(=O)N[C@@H](CC(C)C)C(=O)N[C@@H](CCCNC(=N)N)C(=O)N[C@@H](CCCNC(=N)N)C(N)=O)[C@@H](C)O", "note": "(H-KKIMRTFLRR-NH2)", "values": [
      {"measurement": "MBC", "setting": "Acinetobacter baumannii", "value": "> 128", "unit": "µg/mL"},
      {"measurement": "MIC", "setting": "Acinetobacter baumannii", "value": "> 128", "unit": "µg/mL"},
      {"measurement": "MBC", "setting": "Escherichia coli [1]", "value": 50, "unit": "µg/mL"},
      {"measurement": "MIC", "setting": "Escherichia coli [1]", "value": 25, "unit": "µg/mL"},
      {"measurement": "hemolysis at 100 ug/ml", "setting": "[2]", "value": "< 5", "unit": "%"},
      {"measurement": "MBC", "setting": "Staphylococcus aureus", "value": "> 256", "unit": "µg/mL"},
      {"measurement": "MIC", "setting": "Staphylococcus aureus", "value": 256, "unit": "µg/mL"},
      {"measurement": "MIC", "setting": "Brucella abortus [3]", "value": 128, "unit": "µg/mL"},
      {"measurement": "MBC", "setting": "[4]", "value": "> 256", "unit": "µg/mL"},
      {"measurement": "MIC", "setting": "[4]", "value": "> 256", "unit": "µg/mL"},
      {"measurement": "Activity", "setting": "HeLa", "value": "inactive"},
      {"measurement": "MBC", "setting": "Escherichia coli [5]", "value": 256, "unit": "µg/mL"},
      {"measurement": "MIC", "setting": "Escherichia coli [5]", "value": 256, "unit": "µg/mL"},
      {"measurement": "MBC", "setting": "Pseudomonas aeruginosa", "value": "> 256", "unit": "µg/mL"},
      {"measurement": "MIC", "setting": "Pseudomonas aeruginosa", "value": "> 256", "unit": "µg/mL"},
      {"measurement": "MBC", "setting": "Brucella abortus [6]", "value": "< 256", "unit": "µg/mL"},
      {"measurement": "MBC", "setting": "Escherichia coli [7]", "value": "> 256", "unit": "µg/mL"},
      {"measurement": "MIC", "setting": "Escherichia coli [7]", "value": 256, "unit": "µg/mL"}
    ]},
    {"compound": "CC[C@H](C)[C@H](NC(=O)[C@H](CCCCN)NC(=O)[C@H](CCCCN)NC(=O)[C@H](CO)NC(=O)[C@@H](NC(=O)CNC(=O)[C@H](CCCNC(=N)N)NC(=O)[C@H](CC(C)C)NC(=O)[C@@H](NC(=O)[C@@H](N)CCCCN)[C@@H](C)CC)C(C)C)C(=O)N[C@@H](CCSC)C(=O)N[C@@H](CCCNC(=N)N)C(=O)N[C@H](C(=O)N[C@@H](Cc1ccccc1)C(=O)N[C@@H](CC(C)C)C(=O)N[C@@H](CCCNC(=N)N)C(=O)N[C@@H](CCCNC(=N)N)C(N)=O)[C@@H](C)O", "note": "(H-KILRGVSKKIMRTFLRR-NH2)", "values": [
      {"measurement": "MBC", "setting": "Acinetobacter baumannii", "value": 16, "unit": "µg/mL"},
      {"measurement": "MIC", "setting": "Acinetobacter baumannii", "value": 8, "unit": "µg/mL"},
      {"measurement": "MBC", "setting": "Escherichia coli [1]", "value": 8, "unit": "µg/mL"},
      {"measurement": "MIC", "setting": "Escherichia coli [1]", "value": 4, "unit": "µg/mL"},
      {"measurement": "hemolysis at 100 ug/ml", "setting": "[2]", "value": "< 5", "unit": "%"},
      {"measurement": "MBC", "setting": "Staphylococcus aureus", "value": 128, "unit": "µg/mL"},
      {"measurement": "MIC", "setting": "Staphylococcus aureus", "value": 128, "unit": "µg/mL"},
      {"measurement": "MIC", "setting": "Brucella abortus [3]", "value": 16, "unit": "µg/mL"},
      {"measurement": "MBC", "setting": "[4]", "value": 8, "unit": "µg/mL"},
      {"measurement": "MIC", "setting": "[4]", "value": 8, "unit": "µg/mL"},
      {"measurement": "Activity", "setting": "HeLa", "value": "inactive"},
      {"measurement": "MBC", "setting": "Escherichia coli [5]", "value": 16, "unit": "µg/mL"},
      {"measurement": "MIC", "setting": "Escherichia coli [5]", "value": 8, "unit": "µg/mL"},
      {"measurement": "MBC", "setting": "Pseudomonas aeruginosa", "value": 128, "unit": "µg/mL"},
      {"measurement": "MIC", "setting": "Pseudomonas aeruginosa", "value": 128, "unit": "µg/mL"},
      {"measurement": "MBC", "setting": "Brucella abortus [6]", "value": 64, "unit": "µg/mL"},
      {"measurement": "MBC", "setting": "Escherichia coli [7]", "value": 32, "unit": "µg/mL"},
      {"measurement": "MIC", "setting": "Escherichia coli [7]", "value": 32, "unit": "µg/mL"}
    ]}
  ]
}
